Source: BindingDB's records for doi:10.1021/jm010841w (University of Bristol, 2002)

How the values were obtained:
[1] = Maximum percentage effect of standard Opioid receptor delta 1 (Cl-DPDPE)
[2] = Maximum % effect of standard (DAMGO) was reported against Opioid receptor mu 1

Row | Compound | EC50 [1] | EC50 [2]
1 | CN1CC[C@]23c4c5ccc(O)c4O[C@H]2c2c(c(-c4ccccc4)cn2Cc2ccccc2)C[C@@]3(O)C1C5 [7-benzyl-18-methyl-5-phenyl-10-oxa-7,18-diazahexacyclo[9.9.1.01,9.02,17.04,8.015,21]henicosa-4(8),5,11,13,15(21)-pentaene-2,12-diol] | 41 nM | 
2 | Cc1ccc(-c2cn(Cc3ccccc3)c3c2C[C@@]2(O)C4Cc5ccc(O)c6c5[C@@]2(CCN4CC2CC2)[C@H]3O6)cc1 [7-benzyl-18-cyclopropylmethyl-5-(4-methylphenyl)-10-oxa-7,18-diazahexacyclo[9.9.1.01,9.02,17.04,8.015,21]henicosa-4(8),5,11,13,15(21)-pentaene-2,12-diol] |  | 34 nM
